Reference: PubChem BioAssay (NCI)
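Growth conditions: 96-well plates. Treatment: test compound, 48 hours, 5 concentrations. Analysis: linear interpolation between bracketing concentrations; unreached endpoints set to highest concentration. The concentration for 50% growth inhibition is given as GI50. TGI marks complete inhibition of growth.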

Experiments:
Assay in all cases: NCI-60 cell line screen, 48 h
ACHN renal = tested on: ACHN renal
CCRF-CEM leukemia = tested on: CCRF-CEM leukemia
HCC-2998 colon = tested on: HCC-2998 colon
HCT-116 colon = tested on: HCT-116 colon
IGROV1 ovarian = tested on: IGROV1 ovarian
MDA-MB-435 = tested on: MDA-MB-435
MOLT-4 leukemia = tested on: MOLT-4 leukemia
NCI-H460 lung = tested on: NCI-H460 lung
SW-620 colon = tested on: SW-620 colon
UO-31 renal = tested on: UO-31 renal

| SMILES | GI50 (ACHN renal) | TGI (ACHN renal) | GI50 (CCRF-CEM leukemia) | TGI (CCRF-CEM leukemia) | GI50 (HCC-2998 colon) | TGI (HCC-2998 colon) | GI50 (HCT-116 colon) | TGI (HCT-116 colon) | GI50 (IGROV1 ovarian) | TGI (IGROV1 ovarian) | GI50 (MDA-MB-435) | TGI (MDA-MB-435) | GI50 (MOLT-4 leukemia) | TGI (MOLT-4 leukemia) | GI50 (NCI-H460 lung) | TGI (NCI-H460 lung) | GI50 (SW-620 colon) | TGI (SW-620 colon) | GI50 (UO-31 renal) | TGI (UO-31 renal) |
| --- | --- | --- | --- | --- | --- | --- | --- | --- | --- | --- | --- | --- | --- | --- | --- | --- | --- | --- | --- | --- |
| Cc1cc(C)c(O)c(CN(C)Cc2cc(Cl)cc(Cl)c2O)c1 | 4.73 µM | 24 µM | 2700 nM | 14.8 µM | 4.8 µM | 17.4 µM | 3.23 µM | 10.8 µM | 2200 nM | 8.85 µM | 6.16 µM | 30.2 µM | 3450 nM | 34.7 µM | 3490 nM | 13.7 µM | 3.71 µM | 14.3 µM | 1640 nM | 6.58 µM |
| N#CCc1ncc(-c2ccc(C(F)(F)F)cc2)c(NC2CCCCCC2)n1 | > 10 µM | > 10 µM | > 10000 nM | > 10 µM | > 10 µM | > 10 µM | > 10 µM | > 10 µM | > 10000 nM | > 10 µM | > 10 µM | > 10 µM | > 10000 nM | > 10 µM | > 10000 nM | > 10 µM | > 10 µM | > 10 µM | > 10000 nM | > 10 µM |
| c1ccc(-c2nc(-c3ccccc3)c(-c3ccccc3)[nH]2)cc1 | – | > 100 µM | – | 36.5 µM | – | > 100 µM | – | > 100 µM | – | > 100 µM | – | > 100 µM | – | > 57 µM | – | > 100 µM | – | > 100 µM | – | > 100 µM |
| C=C1C(=O)O[C@H]2[C@H]1CC/C(COC(=O)CSCC(=O)OC/C1=C/CC[C@@]3(C)O[C@H]3[C@H]3OC(=O)C(=C)[C@@H]3CC1)=C\CC[C@@]1(C)O[C@@H]21 | 1.23 µM | 2.48 µM | 268 nM | 1.25 µM | 2.12 µM | 4.56 µM | 0.466 µM | 1.59 µM | 1470 nM | 4.02 µM | 1.69 µM | 3.92 µM | 514 nM | 2.81 µM | 2160 nM | 4.91 µM | 1.02 µM | 2.44 µM | 1440 nM | 2.83 µM |
| O=C(N/N=C/c1ccccc1O)C(=O)Nc1ccc(F)cc1 | 3.02 µM | > 100 µM | 1350 nM | 13.4 µM | 4.61 µM | > 100 µM | 3.19 µM | > 100 µM | 4290 nM | > 100 µM | 8.4 µM | > 100 µM | 2870 nM | > 100 µM | 2740 nM | > 100 µM | 6.26 µM | > 100 µM | 2180 nM | 54.1 µM |
